2 molecules from patent publication US7645588B2, “Composition comprising a cell comprising a STIM1 protein and an agent that modulates intracellular calcium and methods of use” (CalciMedica, Inc., priority 2003, dated 2010) can be followed below.

One data set concerns STIM1-induced Ca2+ entry. As to conditions: HEK[STIM1] cells, absence of store depletion. Here is the method:
(§1) For stable cell lines overexpressing STIM1, pcDNA[STIM1/542-5] was transfected into 3×10^5 HEK293 cells using Effectene (QIAGEN) transfection reagent following the manufacturer's protocol. Forty-eight hours after transfection, cells were harvested and replated under selection with 250 μg/ml Zeocin (Invitrogen). Colonies were selected, amplified, and evaluated for expression of STIM1 mRNA and protein by RT-PCR and western blot, respectively. Limiting dilution of the STIM1 overexpressing colonies generated individual clones.

For data set [1], the system named is store-operated calcium entry (SOCE). Conditions: read-out: IC50 for inhibition of calcium entry; HEK[STIM1] cells; thapsigargin-mediated store depletion followed by readdition of external calcium. The procedure: as §1
For data set [2] the test system is unchanged. Conditions: read-out: IC50 for inhibition of calcium entry; HEK-Zeo control cells; thapsigargin-mediated store depletion followed by readdition of external calcium.
Protocol: The relative cation permeability was assessed in HEK-Zeo and in HEK[STIM1] cells. Cells were loaded with Fluo-4 and treated with thapsigargin to discharge intracellular Ca^2+ stores (HEK-Zeo cells), or vehicle-treated (both HEK-Zeo and HEK[STIM1] cells). After 15 minutes, 10 mM BaCl2 (final concentration), 10 mM SrCl2 (final concentration), or 1.8 mM CaCl2 (final concentration) was added to elicit cation influx. To quantify the rate of cation influx, the first 30 seconds of data following cation addition was analyzed by linear regression.
The next data set has as its system Jurkat T cells. Kind of data set: IL-2 secretion from Jurkat T cells (ELISA). The format is cell-based, human. Conditions: Jurkat clone 4A5; 2.5 μg/ml PHA + 80 nM TPA for 20 hours. An excerpt: To test this prediction, a stable Jurkat T cell line expressing a short hairpin siRNA to suppress expression of STIM1 was generated as follows. Oligonucleotides corresponding to the STIM1-1140 siRNA (sense oligo, 5′-GATCCCGGCTCTGGATACAGTGCTCTTCAAGAGAGAGCACTGTATCCAGAGCCTTTTTTGGAAA-3′ SEQ ID NO: 99; antisense oligo, 5′-AGCTTTTCCAAAAAAGGCTCTGGATACAGTGCTCTCTCTTGAAGAGCACTGTATCCAGAGCCGG-3′ SEQ ID NO: 100) were annealed and ligated into pSilencer 2.1-U6 neo (Ambion) according to the manufacturer's protocol. Correct inserts were verified by DNA sequencing. For the control, a non-silencing scrambled siRNA (Negative Control oligo; Ambion) was generated as above. 2×10^6 Jurkat T cells were electroporated with 5 μg plasmid using a Bio-Rad Gene Pulser (140V, 30 msec, 4 pulses). Two days after transfection, cells were harvested and resuspended in media containing G-418 selection at a concentration of 1×10^4 cells/ml. 1 ml of cells/well was plated in 24-well plates. […]
To measure IL-2 secretion from Jurkat T cells, cells were plated in a 96 well plate at a density of 1.5×10^5 cells/well. […] The media was collected and analyzed for IL-2 levels by ELISA (BioSource) according to the manufacturer's protocols. […]

Where two headings read alike, the source gives them in different places.

Broadly, the IC50 is the concentration that gives 50% inhibition. `NCCOB(c1ccccc1)c1ccccc1` [2-APB, 2-aminoethoxydiphenyl borate]: the “effect on calcium entry at lower concentrations” value in the data set with STIM1-induced Ca2+ entry (lower concentrations of 2-APB (biphasic effect)) is “potentiated”. Further, the half-maximal inhibitory concentration (IC50) came out at 10.8 µM in the data set on STIM1-induced Ca2+ entry (read-out: IC50 for inhibition of constitutive calcium entry), 10.5 µM in data set [1] and 11.8 µM in data set [2].

B1: STIM1-1140 short hairpin siRNA: Short hairpin siRNA corresponding to STIM1-1140, expressed from pSilencer 2.1-U6 neo in stable Jurkat clone 4A5 (nucleic acid)
chain 1: GATCCCGGCTCTGGATACAGTGCTCTTCAAGAGAGAGCACTGTATCCAGAGCCTTTTTTGGAAA
chain 2: AGCTTTTCCAAAAAAGGCTCTGGATACAGTGCTCTCTCTTGAAGAGCACTGTATCCAGAGCCGG
modifications: target site or template, no part of the molecule
Regarding B1, the “secretion of IL-2 upon stimulation” value in the data set with Jurkat T cells was “completely blocked”.
